Assay results as given in patent publication US20240199587A1, “HETEROCYCLIC COMPOUNDS” (Hoffmann-La Roche Inc., priority 2021, published 2024).

biological target: T1, MAGL (Homo sapiens, UniProt Q99685); assay: 2-AG assay (MAGL inhibitory activity, hydrolysis of 2-arachidonoylglycerol to arachidonic acid followed by mass spectrometry); type: biochemical; conditions: 8 μM 2-arachidonoylglycerol, 15 min pre-incubation, 30 min incubation at RT, RapidFire MS readout
T1 sequence (Q99685 1-303): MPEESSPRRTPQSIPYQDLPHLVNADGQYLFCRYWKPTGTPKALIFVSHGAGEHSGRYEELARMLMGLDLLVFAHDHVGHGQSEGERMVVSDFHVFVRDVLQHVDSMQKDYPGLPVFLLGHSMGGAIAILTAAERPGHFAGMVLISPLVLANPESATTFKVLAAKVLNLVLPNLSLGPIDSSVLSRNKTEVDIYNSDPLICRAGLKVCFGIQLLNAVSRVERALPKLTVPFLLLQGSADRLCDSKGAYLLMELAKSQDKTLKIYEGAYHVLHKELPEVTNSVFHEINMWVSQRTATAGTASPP
How it was run: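 Arachidonic acid released from 8 μM 2-arachidonoylglycerol was quantified by online SPE triple-quadrupole MS (negative ESI, 303.1→259.1), normalised to d8-arachidonic acid internal standard. Reaction ran 30 min at RT after 15 min RT compound pre-incubation with […] MAGL in TRIS/EDTA/Tween-20 buffer, 2.5% DMSO.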

IC50 [nM]	Structure (SMILES)
0.2	CC(C)(C)c1ccc(C2CN(C(=O)N3CC4(CC(n5cnc(C6CC6)n5)C4)C3)C2)cc1 [Example 44, [3-(4-tert-butylphenyl)azetidin-1-yl]-[6-(3-cyclopropyl-1,2,4-triazol-1-yl)-2-azaspiro[3.3]heptan-2-yl]methanone]
0.9	CS(=O)(=O)c1ccc(CC2CC3(C2)CN(C(=O)N2CC4(CC(n5cnc(C6CC6)n5)C4)C2)C3)cc1 [Example 205, [6-(3-cyclopropyl-1,2,4-triazol-1-yl)-2-azaspiro[3.3]heptan-2-yl]-[6-(4-mesylbenzyl)-2-azaspiro[3.3]heptan-2-yl]methanone]
117	NC(=O)C(c1ccc(F)cc1)C1CCN(C(=O)N2CC3(CC(n4cnc(C5CC5)n4)C3)C2)CC1 (stereo not drawn) [Example 305, 2-[1-[6-(3-cyclopropyl-1,2,4-triazol-1-yl)-2-azaspiro[3.3]heptane-2-carbonyl]-4-piperidyl]-2-(4-fluorophenyl)acetamide]
274	O=C(N1CC2(CC(n3cnc(C4CC4)n3)C2)C1)N1CC2(C1)CN(S(=O)(=O)c1cccnc1)C2 [Example 317, [6-(3-cyclopropyl-1,2,4-triazol-1-yl)-2-azaspiro[3.3]heptan-2-yl]-[2-(3-pyridylsulfonyl)-2,6-diazaspiro[3.3]heptan-6-yl]methanone]
21.8	O=C(N1CCC(CNS(=O)(=O)c2ccc(OC(F)(F)F)cc2)CC1)N1CC2(CC(n3cnc(C4CC4)n3)C2)C1 [Example 259, N-[[1-[6-(3-cyclopropyl-1,2,4-triazol-1-yl)-2-azaspiro[3.3]heptane-2-carbonyl]-4-piperidyl]methyl]-4-(trifluoromethoxy) benzenesulfonamide]

More lines, now with the values behind:

Structure (SMILES)	IC50 [nM]
O=C(N1CC2(CCC(Cc3ccc(Cl)cn3)CC2)C1)N1CC2(CC(c3ccc(C(F)(F)F)nc3)C2)C1 [Example 517, [7-[(5-chloro-2-pyridyl)methyl]-2-azaspiro[3.5]nonan-2-yl]-[6-[6-(trifluoromethyl)-3-pyridyl]-2-azaspiro[3.3]heptan-2-yl]methanone]	299
O=C(N1CC2(CC(n3cnc(C4CC4)n3)C2)C1)N1CC2(CCN(Cc3cnc(C(F)(F)F)cn3)C2)C1 [Example 437]	6.37
CS(=O)(=O)c1cc(F)cc(CC2CC3(C2)CN(C(=O)N2CC4(CC(n5cnc(C(F)(F)F)n5)C4)C2)C3)c1 [Example 460, [6-[(3-fluoro-5-methylsulfonyl-phenyl)methyl]-2-azaspiro[3.3]heptan-2-yl]-[6-[3-(trifluoromethyl)-1,2,4-triazol-1-yl]-2-azaspiro[3.3]heptan-2-yl]methanone]	0.93
O=C(N1CC(c2nc(CC3(C(F)(F)F)CC3)no2)C1)N1CC2(CC(n3cnc(C4CC4)n3)C2)C1 [Example 2, [6-(3-cyclopropyl-1,2,4-triazol-1-yl)-2-azaspiro[3.3]heptan-2-yl]-[3-[3-[[1-(trifluoromethyl)cyclo-propyl]methyl]-1,2,4-oxadiazol-5-yl]azetidin-1-yl]methanone]	25.7
O=C(N1CC(Oc2ccc(C(F)(F)F)c(C3CC3)c2)C1)N1CC2(CC(c3cncc(F)c3)C2)C1 [Example 512]	356
O=C(N1CC(C23CC(CNC4(C(F)(F)F)CC4)(C2)C3)C1)N1CC2(CC(n3cnc(C(F)(F)F)n3)C2)C1 [Example 420, [3-[3-[[[1-(trifluoromethyl)cyclopropyl]amino]methyl]-1-bicyclo[1.1.1]pentanyl]azetidin-1-yl]-[6-[3-(trifluoromethyl)-1,2,4-triazol-1-yl]-2-azaspiro[3.3]heptan-2-yl]methanone]	0.74
O=C(N1CC2(CC(n3cnc(C4CC4)n3)C2)C1)N1CC2(CCN(Cc3ccc(C(F)(F)F)cn3)C2)C1 [Example 439, [6-(3-cyclopropyl-1,2,4-triazol-1-yl)-2-azaspiro[3.3]heptan-2-yl]-[7-[[5-(trifluoromethyl)-2-pyridyl]methyl]-2,7-diazaspiro[3.4]octan-2-yl]methanone]	3.74
